molecular target: T1, AtGDH (Aspergillus terreus NADP+-specific glutamate dehydrogenase) (Aspergillus terreus, UniProt T2D1F5); test: NADPH oxidation at […] nm, reductive amination; type: biochemical
T1 sequence (T2D1F5 1-460): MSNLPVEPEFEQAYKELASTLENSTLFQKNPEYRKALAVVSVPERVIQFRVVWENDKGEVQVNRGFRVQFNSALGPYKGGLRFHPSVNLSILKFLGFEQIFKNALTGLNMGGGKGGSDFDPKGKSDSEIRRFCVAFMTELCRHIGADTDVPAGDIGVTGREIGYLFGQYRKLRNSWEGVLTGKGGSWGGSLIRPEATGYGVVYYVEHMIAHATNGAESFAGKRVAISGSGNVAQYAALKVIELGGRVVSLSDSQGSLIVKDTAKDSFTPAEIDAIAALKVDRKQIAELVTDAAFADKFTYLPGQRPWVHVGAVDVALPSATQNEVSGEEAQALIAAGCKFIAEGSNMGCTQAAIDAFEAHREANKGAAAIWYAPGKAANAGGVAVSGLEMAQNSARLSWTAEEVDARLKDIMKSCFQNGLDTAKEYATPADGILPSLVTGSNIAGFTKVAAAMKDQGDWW

| SMILES | Ki [mM] |
| --- | --- |
| O=C(O)/C=C\C(=O)O [maleate] | 36.2 |
| O=C(O)CCC(=O)O [succinate] | 39.1 |

Now from value to molecule:

| Ki [mM] | SMILES |
| --- | --- |
| 19.5 | O=C(O)CC(=O)O [malonate] |
| 50.8 | O=C(O)C(O)C(O)C(=O)O (centres unmarked) [tartrate] |
| 23.2 | O=C(O)/C=C/C(=O)O [fumarate] |

— publication doi:10.1101/2021.09.28.462122v1 (biorxiv, 2021)
